Measured values: paper PMC12406685, “Thiazole substitution of a labile amide bond—a new option toward antiplasmodial pantothenamide-mimics” (Antimicrobial Agents and Chemotherapy, 2025)
Like-named read-outs stand apart in the source and are kept apart here.

Assays:
PfPanK = PfPanK (Plasmodium falciparum, UniProt Q8IL92+Q8ILP4); assay: [14C]pantothenate phosphorylation assay in P. falciparum lysates (Somogyi reagent); assay type: biochemical; settings: for inhibition at 2 µM: read-out: Inhibition of pantothenate phosphorylation
Sequence of PfPanK (Q8ILP4 entry or part of it): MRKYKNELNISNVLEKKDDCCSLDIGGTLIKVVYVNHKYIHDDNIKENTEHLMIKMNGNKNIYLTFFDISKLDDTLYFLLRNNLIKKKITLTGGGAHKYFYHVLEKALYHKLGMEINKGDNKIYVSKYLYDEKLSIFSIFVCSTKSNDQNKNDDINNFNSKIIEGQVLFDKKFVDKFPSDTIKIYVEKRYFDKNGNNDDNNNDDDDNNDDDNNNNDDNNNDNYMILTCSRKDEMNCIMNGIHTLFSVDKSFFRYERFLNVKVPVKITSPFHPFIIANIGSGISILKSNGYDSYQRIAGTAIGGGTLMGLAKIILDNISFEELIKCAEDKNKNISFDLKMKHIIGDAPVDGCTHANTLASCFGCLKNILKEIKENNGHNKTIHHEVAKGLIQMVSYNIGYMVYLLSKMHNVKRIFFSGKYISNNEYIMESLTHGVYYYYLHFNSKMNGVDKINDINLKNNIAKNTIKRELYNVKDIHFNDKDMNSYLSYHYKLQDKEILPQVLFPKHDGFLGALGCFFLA
Sequence of PfPanK (Q8IL92 entry or part of it): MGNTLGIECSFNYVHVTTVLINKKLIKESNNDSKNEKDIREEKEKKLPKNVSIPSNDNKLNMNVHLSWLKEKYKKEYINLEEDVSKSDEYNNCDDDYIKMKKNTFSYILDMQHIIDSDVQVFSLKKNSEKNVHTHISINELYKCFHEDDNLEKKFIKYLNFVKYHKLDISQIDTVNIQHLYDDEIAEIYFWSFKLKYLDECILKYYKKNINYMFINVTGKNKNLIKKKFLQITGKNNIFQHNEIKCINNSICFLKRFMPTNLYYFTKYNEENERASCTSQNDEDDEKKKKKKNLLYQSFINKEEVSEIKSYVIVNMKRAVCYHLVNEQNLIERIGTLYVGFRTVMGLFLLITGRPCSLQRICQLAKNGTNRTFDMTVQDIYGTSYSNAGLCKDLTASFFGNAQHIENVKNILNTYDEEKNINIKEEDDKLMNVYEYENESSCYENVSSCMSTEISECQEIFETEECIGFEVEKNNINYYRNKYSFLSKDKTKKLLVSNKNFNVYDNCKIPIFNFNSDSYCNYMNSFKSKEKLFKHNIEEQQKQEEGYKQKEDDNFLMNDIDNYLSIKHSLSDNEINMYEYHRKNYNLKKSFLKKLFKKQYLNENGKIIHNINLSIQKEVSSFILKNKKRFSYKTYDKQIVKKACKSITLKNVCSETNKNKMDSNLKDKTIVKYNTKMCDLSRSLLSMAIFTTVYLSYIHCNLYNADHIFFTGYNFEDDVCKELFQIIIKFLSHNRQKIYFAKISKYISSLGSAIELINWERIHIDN
Method: Parasite lysates were prepared from saponin-isolated mature trophozoite-stage parasites as described by Saliba et al. ([14]), with modifications. Briefly, a culture with predominantly trophozoite stage parasites was thoroughly mixed with saponin (0.05% [wt/vol] final concentration) and centrifuged at 2,000 × g for 8 min at 4°C. The pelleted parasites were then transferred to a 1.5 mL tube and washed three times (16,000 × g, 1 min each time) with cold malaria saline (125 mM NaCl, 5 mM KCl, 25 mM HEPES, 20 mM glucose, 1 mM MgCl2, pH 7.1). Subsequently, washed saponin-isolated parasites were suspended in 1 mL of 10 mM Tris/Cl, pH 7.4, followed by trituration (10 times) through a SafetyGlide injection needle (25-gauge). The lysates were then centrifuged at 16,000 × g for 30 min at 4°C, and the supernatant was transferred to a new tube. The concentration of the lysates was then determined using the Bradford reagent.
Phosphorylation of [^14C]pantothenate was determined using a combination of zinc sulphate (ZnSO4) and barium hydroxide (Ba(OH)2) (Somogyi reagent) as previously described ([78]). In the 125 min time course, each reaction (650 µL) contained a final concentration of 50 mM Tris-Cl (pH 7.4), 5 mM ATP, 5 mM MgCl2, 2 µM (0.1 µCi/mL) [^14C]pantothenate, and 60 µg of total parasite lysate. The compounds were added at their 10× antiplasmodial IC50 values or at various concentrations to generate dose–response curves. Mixtures were incubated at 37°C throughout the experiment, and reactions were initiated by the addition of the lysates. A reaction with identical components to the test reactions but lacking the parasite lysate was prepared to serve as a no-phosphorylation negative control, and a reaction with DMSO vehicle control (0.2% vol/vol) served as a positive control. At pre-determined time points, 50 µL of the reaction mixture was transferred in triplicate to wells of a 96-well filter plate with 0.2 µm hydrophilic polyvinylidene fluoride (PVDF) membrane filter (Corning), which had been pre-loaded with 50 µL of 150 mM Ba(OH)2. The reaction mixtures were thoroughly mixed with the Ba(OH)2 in the wells to precipitate the enzyme and terminate the phosphorylation reaction. After all reactions had been terminated, phosphorylated compounds in each well were precipitated by the addition of 50 µL of 150 mM ZnSO4 to generate the Somogyi reagent. The plate was then washed twice with deionized H2O and once with 95% (vol/vol) ethanol using a vacuum manifold to remove the non-phosphorylated [^14C]pantothenate and was subsequently dried overnight at 37°C in a non-humidified incubator. The following day, 30 µL of Microscint-O (PerkinElmer) was added to each well, and the plate was sealed on the top and bottom with TopSeal-A Plus sealing film (PerkinElmer). A Packard Microplate Scintillation and Luminescence Counter was used to measure the radioactivity in each well immediately after the plate had been sealed. To determine the total radioactivity in each phosphorylation assay, 50 µL of each reaction mixture was added to the wells of an OptiPlate-96 microplate (PerkinElmer) in triplicate and was then thoroughly mixed with 150 µL of Microscint-40 (PerkinElmer), and the radioactivity was measured in the same manner. Phosphorylation of [^14C]pantothenate, calculated as a percentage of the radioactivity measured in the test wells relative to the total radioactivity in the phosphorylation assay, was then plotted against the reaction time. Each data set was analyzed by linear regression, from which the phosphorylation rate of each reaction was then determined and expressed as a percentage of the phosphorylation rate of the DMSO-positive control reaction.

[1] = system: intraerythrocytic P. falciparum; assay: In vitro parasite proliferation assay (SYBR Safe-based fluorescence); assay type: cell-based, Plasmodium falciparum (3D7 strain); settings: for Antiplasmodial IC50 range, in words: 1 µM pantothenate; for IC50: Plasmodium falciparum, intraerythrocytic stage, 96 h
Method: Culturing of intraerythrocytic stage P. falciparum parasites (3D7 strain) was carried out using a method adapted from Trager and Jensen ([97]) and Allen and Kirk ([98]). Parasites were maintained within human, male or female, erythrocytes (typically Group O+, Rh+, 4% hematocrit) in RPMI-1640 medium (Thermo Fisher Scientific, catalogue number 72400120) supplemented with 25 mM HEPES, 11 mM glucose, 200 μM hypoxanthine, 24 μg/mL gentamicin and 6 g/L Albumax II on a horizontally rotating shaking incubator (New Brunswick Innova 42/[…]) at 37°C under an atmosphere of 96% nitrogen, 3% carbon dioxide, and 1% oxygen. To evaluate the effect of each compound on the in vitro proliferation of P. falciparum parasites, a SYBR Safe-based fluorescence assay was used as previously described ([32]). All pantothenamide-mimics tested were initially dissolved to a concentration of 200 mM in DMSO. The final DMSO concentration in the assay never exceeded 0.1% (vol/vol). Assays were performed using the same medium used to culture the parasites. […] Assays were set up with synchronous ring-stage P. falciparum-infected erythrocytes in 96-well microtiter plates. Parasites were synchronized using 5% (wt/vol) sorbitol ([100]). […] P. falciparum-infected erythrocytes incubated in the presence of 0.5 μM chloroquine were used as a non-proliferation control, and those incubated in the absence of compounds and chloroquine served as a 100% parasite proliferation control. To minimize “edge effects” ([101], [102]), the outermost rows and columns of the microtiter plates were not used in the proliferation assays and were filled with 200 μL of medium. The plates were then incubated at 37°C for 96 h under a low-oxygen atmosphere. At the end of the incubation, plates were frozen at -80°C to lyse the cells. […] The fluorescence in the non-proliferation control wells was subtracted from the fluorescence readings in the other wells prior to further analysis. Parasite proliferation, calculated as a percentage of the fluorescence measured in the test wells relative to the fluorescence measured in the 100% parasite proliferation control wells, was then plotted against the logarithm of the compound concentration. […] IC50 values (determined from the sigmoidal curves) were averaged from three independent experiments.

[2] = RPMI-1640 containing 1 µM pantothenate, mean ± SEM of three experiments, read-out: IC50 (µM) against Pf at 1 µM Pan
[3] = RPMI-1640 containing 100 µM pantothenate, read-out: IC50 (µM) against Pf at 100 µM Pan

| SMILES | inhibition at 2 µM (PfPanK) [%] | Antiplasmodial IC50 range, in words [1] | IC50 [1, 2] [µM] | IC50 [1, 3] [µM] | Fold by which IC50 at inhibiting pantothenate phosphorylation is higher than Km for pantothenate of PfPanK (PfPanK; relative to reported Km 270 ± 95 nM) |
| --- | --- | --- | --- | --- | --- |
| CC(C)(CO)[C@@H](O)C(=O)NCc1nc(CCc2ccccc2)cs1 [Compound 1e] | > 90 | sub-micromolar range | 0.77 ± 0.09 | > 12.5 |  |
| CCCCc1csc(CNC(=O)[C@H](O)C(C)(C)CO)n1 [Compound 1a] | > 90 | sub-micromolar range | 0.77 ± 0.1 | > 6.25 |  |
| CC(C)(CO)[C@@H](O)C(=O)NCc1cnc(-c2ccccc2)s1 [Compound 3f] | > 90 |  | 8 ± 0.7 | > 50 |  |
| CC(C)(CO)[C@@H](O)C(=O)NCc1csc(Cc2ccccc2)n1 [Compound 2c] | > 90 |  | 2.4 ± 0.2 | > 25 |  |
| CCCCCc1csc(CNC(=O)[C@H](O)C(C)(C)CO)n1 [Compound 1c] | > 90 |  | 2.3 ± 0.2 | > 25 |  |
| CC(C)(CO)[C@@H](O)C(=O)NCc1csc(-c2ccccc2)n1 [Compound 2e] | ~80 | sub-micromolar range | 0.51 ± 0.02 | > 6.25 | approximately 2.1 fold |
